Several values for one entry are separate records, joined by “and”; a condition that tells them apart may be missing. Identical values can stand only once.
Legend:
biotinylated HRP = experiment: Model system for selection of SSIA (AK1/streptavidin BSA microparticles + biotinylated HRP); type: biochemical, horseradish; conditions: SSIA 100 μM final
Procedure, shortened: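 Streptavidin/AK1/biotin-BSA M280 microparticles mixed with candidate SSIA (100 μM final) and Btn-HRP at 0, 1, 10, 100 or 250 ng/mL, with unlabeled HRP to 500 ng/mL total HRP. After 30 min at 37° C, trigger solution was added and light intensity recorded on a modified DxI analyzer.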

PSA [1] = experiment: Assay of PSA with direct-labeled sbp's (Ab1-AK11, Ab2-HRP) with and without SSIA; type: biochemical, human; conditions: 600 μM ascorbic acid solution
Procedure: The Ab1-AK11 conjugate was provided in PBS, pH 7.4 at 10 μg/ml. The Ab2-HRP conjugate was provided in PBS, pH 7.4 at 0.25 μg/ml. […] For comparison without SSIA, in a second reaction vessel, 25 μl of Ab1-AK11 conjugate, 25 μl of water, 25 μl of Ab2-HRP conjugate were added to 25 μl of sample and incubated for 15 minutes.
Each sample was analyzed according to the above assay method in triplicate. The RLU data collected for each assayed sample during the time interval of 495 milliseconds starting 125 milliseconds from start of trigger solution introduction into the reaction vessel was summed for each individual run, averaged over the triplicates for each sample and presented in Table 13. A ratio of signal to noise (S/S0) was calculated at each concentration value.

PSA [2] = experiment: Assay of PSA with dextran scaffold chemiluminescent-labeled sbp with and without SSIA; type: biochemical, human; conditions: ascorbic acid as SSIA
Procedure: In this example, one member of a specific binding pair of monoclonal antibodies for PSA is conjugated to a dextran molecule coupled with AK1, as described in Example 10 below, except the antibody is thiolated and covalently-linked to AK11-labeled and maleimide-activated dextran. A second monoclonal PSA antibody was conjugated to HRP, as described above and provided in an aqueous solution at either 0.5 μg/ml, 0.1 μg/ml or 0.03 μg/ml as indicated in the tables below. The assays were performed by placing 25 μl of sample in each of two reaction vessels. To the sample in the first reaction vessel, 25 μl of Ab1 solution, 25 μl of water, 25 μl of Ab2 solution was added and incubated for 15 minutes. […] Each sample was analyzed according to the above assay method in triplicate. […] A ratio of signal to noise (S/S0) was calculated at each concentration value. […] Samples of known concentration were prepared as described previously. Each sample was analyzed according to the above method in triplicate.

O=C1O[C@H]([C@@H](O)CO)C(O)=C1O [Ascorbic Acid]
light intensity, BTN-HRP0 (biotinylated HRP; Btn-HRP 0 ng/mL, total HRP 500 ng/mL): 97 and 151
S1/S0 (biotinylated HRP; Btn-HRP 1 ng/mL vs 0): 7.8 and 6.6
light intensity, BTN-HRP1 (biotinylated HRP; Btn-HRP 1 ng/mL, total HRP 500 ng/mL): 757 and 995
S2/S0 (biotinylated HRP; Btn-HRP 10 ng/mL vs 0): 171.6 and 216.2
light intensity, BTN-HRP10 (biotinylated HRP; Btn-HRP 10 ng/mL, total HRP 500 ng/mL): 16,641 and 32,568
S3/S0 (biotinylated HRP; Btn-HRP 100 ng/mL vs 0): 38064.9 and 30222.2
light intensity, BTN-HRP100 (biotinylated HRP; Btn-HRP 100 ng/mL, total HRP 500 ng/mL): 3,692,291 and 4,553,473
S4/S0 (biotinylated HRP; Btn-HRP 250 ng/mL vs 0): 62228.3 and 59176.1
light intensity, BTN-HRP250 (biotinylated HRP; Btn-HRP 250 ng/mL, total HRP 500 ng/mL): 6,036,145 and 8,915,869
effectiveness as SSIA in the model system (biotinylated HRP): demonstrating utility as SSIA
RLU, With SSIA (PSA [1]; PSA 0.0 ng/mL): 180 RLU
S/S0, With SSIA (PSA [1]; PSA 0.0 ng/mL): 1.0
RLU, With SSIA (PSA [1]; PSA 0.4 ng/mL): 324 RLU
S/S0, With SSIA (PSA [1]; PSA 0.4 ng/mL): 1.8
RLU, With SSIA (PSA [1]; PSA 7.0 ng/mL): 3032 RLU
S/S0, With SSIA (PSA [1]; PSA 7.0 ng/mL): 16.8
RLU, With SSIA (PSA [1]; PSA 101.6 ng/mL): 23119 RLU
S/S0, With SSIA (PSA [1]; PSA 101.6 ng/mL): 128.4
RLU, w/SSIA (PSA [2]; PSA 0.0 ng/mL): 1756 RLU
S/S0, w/SSIA (PSA [2]; PSA 0.0 ng/mL): 1.0
RLU, w/SSIA (PSA [2]; PSA 0.4 ng/mL): 4393 RLU
S/S0, w/SSIA (PSA [2]; PSA 0.4 ng/mL): 2.5
RLU, w/SSIA (PSA [2]; PSA 7.0 ng/mL): 57119 RLU
S/S0, w/SSIA (PSA [2]; PSA 7.0 ng/mL): 32.5
RLU, w/SSIA (PSA [2]; PSA 101.6 ng/mL): 604024 RLU
S/S0, w/SSIA (PSA [2]; PSA 101.6 ng/mL): 344.0
